# Patent publication US20250213649A1, “PEPTIDE HAVING ANTI-INFLAMMATORY AND ANTI-FIBROTIC ACTIVITIES AND USE THEREOF” (CAREGEN CO., LTD., priority 2022, published 2025)
# Experiments:
# [1] = system: MRC-5 cells; assay: Western blotting of LPS-induced inflammatory cytokine/signaling proteins, MRC-5 cells; type: cell-based; details: 5 μg/ml LPS, peptide 10, 50, 100, 500 μM, 24 hours, Western blot (FIG. 3)
# Protocol: MRC-5 cells (lung fibroblast cells) were seeded at 2×10^5 cells/well in a 6-well plate and used in the experiment. After culturing for 1 day with a culture medium containing 10% FBS, the culture medium was replaced with a culture medium without containing FBS to induce starvation for 4 hours. Cells of a normal group without being treated with any substances, a group treated with 5 μg/ml of LPS (Sigma Aldrich) (negative control group), groups treated with 5 μg/ml of LPS and the peptide of Production Example 1 (10, 50, 100, 500 μM), and a group treated with 5 μg/ml of LPS and 10 μM of Dexamethasone (DEX) (positive control group) were treated with active substances and drugs respectively and then cultured for 24 hours. The cultured cells of each treatment group and control group were lysed by adding a lysis buffer, and then centrifugation was carried out at 4° C. at 12,000 rpm for 30 minutes to obtain proteins, which were subsequently quantified using a BCA Protein Assay kit (Sigma). The proteins were subjected to SDS-PAGE (sodium dodecyl sulfate-polyacrylamide gel electrophoresis) and then subjected to electrotransfer to a membrane. The membrane to which the proteins were attached was treated with 5% skim milk for blocking and then subjected to a reaction with a primary antibody overnight at 4° C. After washing with PBS-T, the membrane was subjected to a reaction with a secondary antibody at room temperature for 1 hour, washed again with PBS-T, and then visualized by a Western detection reagent (Elpis Biotech, Daejeon, Korea) using Gel Doc (Bio-Rad, Hercules, CA, USA). The antibodies used in the experiment are as follows. An Anti-IL-1β antibody (Cell signaling technology (CST), USA), an anti-IL-6 antibody (Santa Cruz Biotechnology, USA), an anti-pJNK antibody (Santa Cruz Biotechnology, USA), an anti-pERK antibody (Cell signaling technology (CST), USA), and an anti-β-Actin antibody (Santa Cruz Biotechnology, USA).
# [2] = system: BALB/c mice; assay: LPS-induced acute lung inflammation model, ELISA of pro-inflammatory proteins in BALF; type: in vivo; details: BALB/c female mice, LPS 10 μg intranasal, peptide 0.5 mg, 1 mg intranasal, 24 hours (FIG. 11a-11d)
# Protocol: BALB/c mice (Female/7W) were used in animal experiments, and an acute lung inflammation model was established by injection of LPS. As shown in [Table 5] below, 7-week-old BALB/c female mice were divided into 5 groups of 5 mice each, and then the experiment was carried out. On the 1st day, LPS (10 μg/50 μl/mouse) was administered intranasally to the G2 to G5 groups. 1 hour after LPS administration, the G3 and G4 groups were subjected to intranasal administration with the peptide of Production Example 1 (0.5 mg, 1 mg), and the G5 positive control group was subjected to intraperitoneal administration with Dexamethasone (100 μg). 24 hours after the administration of the active substance and the drug, the mice were sacrificed to obtain the bronchoalveolar lavage fluid and the lung tissue, which were used in the next analysis.
# The collected BALF was subjected to the ELISA analysis of pro-inflammatory proteins. The supernatant obtained by centrifuging the collected BALF at 3,000 rpm for 10 minutes was subjected to analysis using a TNF-α Quantikine ELISA kit (R&D systems), an IL-1β Quantikine ELISA kit (R&D systems), an IL-6 Quantikine ELISA kit (R&D systems), and a Myeloperoxidase (MPO) Quantikine ELISA Kit (R&D systems) according to the instructions for use, and then the absorbance was measured at 450 nm using a microplate reader.
# [3] = system: A549 cells; assay: Inhibition of inflammatory cytokine gene expression induced by IL-1β, RT-PCR, A549 cells; type: cell-based, human; details: IL-1β 2 ng/ml, peptide 10, 50, 100, 500 μM, 3 hours, RT-PCR (FIG. 8)
# Protocol: A549 cells (human alveolar basal epithelial cells) were seeded at 3×10^5 cells/well in a 6-well plate and used in the experiment. After culturing for 1 day with a culture medium containing 10% FBS, the culture medium was replaced with a culture medium without containing FBS to induce starvation for 4 hours. A normal group without being treated with any substances, a group treated with IL-1β (2 ng/ml) (negative control group), groups treated with IL-1β (2 ng/ml) and the peptide of Production Example 1 (10, 50, 100, 500 μM), and a group treated with IL-1β (2 ng/ml) and 10 μM of Dexamethasone (DEX) (positive control group) were treated with the above-described active substances and drugs respectively, and then RNA was extracted after 3 hours to carry out RT-PCR. RNA was extracted from the A549 cells in each of the above groups using an easy-BLUE™ Total RNA extraction kit (Qiagen, Germany). The extracted RNA was converted into cDNA with RT-PCR premix (iNtRON Biotechnology, Seongnam, Korea). After preparing a reaction mixture with PCR premix (iNtRON Biotechnology, Seongnam, Korea) and primers for each gene, PCR was carried out using a PCR machine (Eppendorf, Germany). Next, the mRNA expression pattern was determined by agarose gel electrophoresis. The base sequences of the primers used in the experiment are as shown in [Table 2].
# [4] = system: BALB/c mice; assay: BLM-induced pulmonary fibrosis model, Masson's Trichrome staining of lung tissue collagen; type: in vivo; details: BALB/c male mice, peptide 1 mg/mouse intranasal three times a week for 14 days, 21st day, Trichrome staining (FIG. 15a, 15b)
# Protocol: As shown in [Table 6] below, 8-week-old BALB/c male mice were divided into 4 groups of 5 mice each. On the 1st day, a Bleomycin solution ([…]/50 μl/mouse) was administered through the oropharynx to carry out one time of induction with BLM. Then, from the 7th day, the peptide of Production Example 1 (1 mg/mouse) was administered intranasally three times a week for 14 days, and Pirfeninone (2 mg/mouse) for a positive control group was administered orally three times a week for 14 days. On the 21st day of the induction with BLM, mice were sacrificed to obtain the bronchoalveolar lavage fluid and the lung tissue, which were used in the next analysis.
# The lung tissue obtained from mice subjected to the animal experiment was washed with PBS at room temperature and then fixed with 4% paraformaldehyde (PBS dilution). The fixed tissue was washed three times with PBS and dehydrated using an ethanol series having a concentration gradient of 70% to 100%. Next, the lung tissue sample was embedded and cut into slices having a thickness of 4 μm. The sliced specimen having a size of 4 μm, which was placed on a slide glass, was dewaxed and hydrated in an ethanol series having a concentration gradient. Staining was carried out for 10 minutes in each of Weigert's iron hematoxlin, a Biebrich scarlet-acid fuchsin solution, a Phosphomolybdic-phosphotungstic acid solution, and an aniline blue solution. […]
sequence,measurement,setting,value
KYLLVHRPYYRR [peptide of Production Example 1],expression of IL-1β (protein),[1],"decreased again the expression of IL-1β, IL-6, pJNK, and pERK in a concentration-dependent manner"
same,expression of IL-6 (protein),[1],"decreased again the expression of IL-1β, IL-6, pJNK, and pERK in a concentration-dependent manner"
same,expression of pERK,[1],"decreased again the expression of IL-1β, IL-6, pJNK, and pERK in a concentration-dependent manner"
same,expression of pJNK,[1],"decreased again the expression of IL-1β, IL-6, pJNK, and pERK in a concentration-dependent manner"
same,expression level of IL-1β in BALF (ELISA),[2],reduced the increased expression levels of the cytokines in a concentration-dependent manner
same,expression level of IL-6 in BALF (ELISA),[2],reduced the increased expression levels of the cytokines in a concentration-dependent manner
same,expression level of Myeloperoxidase (MPO) in BALF (ELISA),[2],reduced the increased expression levels of the cytokines in a concentration-dependent manner
same,expression level of TNF-α in BALF (ELISA),[2],reduced the increased expression levels of the cytokines in a concentration-dependent manner
same,gene expression level of COX-2,[3],decreases in a concentration-dependent manner
same,gene expression level of IL-1β,[3],decreases in a concentration-dependent manner
same,gene expression level of IL-6,[3],decreases in a concentration-dependent manner
same,gene expression level of IL-8,[3],decreases in a concentration-dependent manner
same,gene expression level of TNF-α,[3],decreases in a concentration-dependent manner
same,degree of collagen deposition in the lung tissue,[4],significantly reduced
